Measurements published in patent US4666890A, “Peptide, process for preparation thereof and use thereof” (priority 1978, dated 1987).

What was measured:
mice = experiment: Acute toxicity in mice; format: in vivo; settings: 1 g/kg (i.v.)
From the text: ACUTE TOXICITY IN MICE of FR-900156
1 g/kg (i.v.): no toxicity.

Mice (DDY male 5-6 W) = experiment: Blood stream clearance of carbon; format: in vivo
Method: 1. Carbon suspension. Rotoring drawing ink (170 mg carbon/ml.) was diluted to 1/5 of the original concentration in saline containing 1% gelatin.
2. 0.1% aqueous sodium carbonate solution.
Mice (DDY male 5-6 W) were injected via the tail vein with a dose of 0.01 ml/g body weight of carbon. Blood samples were taken by means of a pointed capillary pippet calibrated to hold a 50 μl and previously washed in heparin. This was plunged into the retrooribital venous sinus at the nasal angle of the eye. The samples were removed at 3 and 6 min. The blood was immediately discharged into 3.0 ml. of the sodium carbonate solution. This hemolyszed the blood and allowed the quantitation of carbon. The samples were then read in a spectrophotometer at 660 nm, the log concentration being obtained from a previously determined standard curve. The clearance value K may be determined by plotting log carbon concentration against time according to the following relationship; [formula] in which T1 and T2 represent the time in min when the sample were withdrawn and C1 and C2 represent the concentrations of carbon in the blood at the time T1 and T2, respectively.
The aqueous solution of the test compound as given was administered subcutaneously to mice. Twenty four hours later, blood stream clearance of carbon was measured. K value obtained with treated mice was compared with that of control mice.

Row | SMILES | Acute toxicity in mice (mice) | Ktreated /Kcontrol (Mice (DDY male 5-6 W); dose 1 mg/mouse) | Ktreated /Kcontrol (Mice (DDY male 5-6 W); dose 10 mg/mouse)
1 | C[C@H](NC(=O)[C@@H](C)O)C(=O)N[C@H](CCC(=O)N[C@@H](CCC[C@@H](N)C(=O)O)C(=O)NCC(=O)O)C(=O)O [FR-900156 substance] | no toxicity | – | –
2 | c1ccc([C@H]2CN3CCSC3=N2)cc1 [Levamisol] | – | 0.5 | death
